Measurements reported in publication PMC8000185 (International Journal of Molecular Sciences, 2021).

Key:
[1] = Cell viability (cytotoxicity) assay; format: cell-based; details: human, MDA-MB-231 cells, 48 h treatment
Experimental: On the day of treatment, respective compounds were serially diluted using a semi-logarithmic dilution series from 20 mM stocks in neat DMSO into DMEM-high glucose media (10% v/v FBS) in a separate 96-well plate and under sterile conditions. Thereafter, 10 μL of the diluted compounds at their respective concentrations (n = 4) were added to the cells. […] Vehicle media blanks or drug blanks were also included to correct for inherent colour of the compounds and phenol red-containing media. Following 48 h treatment, 20 μL CellTitre 96® Aqueous One Solution Cell Proliferation Assay (Promega, Madison, USA) was added to each well, plates were incubated for 2 h, and absorbance was measured at 490 nm using a SpectraMax Plus 384-well plate reader (Molecular Devices LLC, San Jose, USA) and Softmax PRO v7.0 software. Blank-corrected data were analysed and graphed using GraphPad PRISM v8.0 software (GraphPad Software, San Diego, CA USA).

[2] = target: T1, urokinase from human kidney cells (human uPA) (Homo sapiens, UniProt P00749); assay: uPA inhibition assay (fluorescence-based, purified enzyme); format: biochemical; details: for IC50: purified enzyme, Z-Gly-Gly-Arg-AMC substrate, number in parentheses after value, read-out: uPA IC50
T1 construct: low molecular weight active human uPA; purchased Sigma-Aldrich U4010; host or cells: human kidney cells

[3] = target: T2, NHE1 (Homo sapiens, UniProt P19634); assay: Plate-based NHE1 inhibition assay (BCECF pHi recovery, 96-well plate reader); format: cell-based; details: MDA-MB-231 cells, plate reader
T2 construct: endogenous in cells; host or cells: MDA-MB-231
Experimental: To perform NHE1 screening with increased throughput, we adapted the conventional cuvette-based NHE1 activity assay to a simple new 96-well plate format using MDA-MB-231 cells that were compatible with common laboratory fluorescence plate readers (see Section 4 for details).
Culture media were removed and replaced with 200 µL 0.2% FBS-containing media with incubation for 3–4 h to stimulate NHE1 activity, followed by incubation for 30 min in the presence of 5 µM 2′,7′-bis(carboxyethyl)-5(6)-carboxyfluorescein-acetoxymethyl ester (BCECF-AM, cat #ab143463, Abcam, Cambridge, United Kingdom). Cells were then washed with 100 µL/well Na^+-free acid-load buffer: 10 mM NH4Cl, 1.8 mM CaCl2, 90 mM N-methyl-D-glucamine (from 1 M stock titrated to pH 7.4 with HCl), 5 mM glucose, 15 mM HEPES, 5 mM KCl, 1 mM MgCl2 (pH 7.5, adjusted with KOH), and incubated at 37 °C for a further 30 min. Acid-load buffer was removed and replaced with Na^+-containing assay buffer: 100 mM NaCl, 1.8 mM CaCl2, 5 mM glucose, 15 mM HEPES, 5 mM KCl, 1 mM MgCl2 containing serial dilution of each compound or DMSO vehicle, and changes in fluorescence were read immediately using a BMG Labtech POLARstar OMEGA (BMG Labtech GmbH, Offenburg, Germany) plate reader according to the parameters in Table S1. Compounds were tested at n = 3 technical replicates per concentration per plate. BCECF-AM-free cells were treated with matched concentrations of each compound to correct for intrinsic fluorescence. DMSO was present in all wells at a final concentration of 1% v/v. Inhibition of NHE1-mediated pHi recovery was determined by ratiometric calculation of the change in blank-corrected pH-sensitive fluorescence divided by the isobestic fluorescence for each well over time. […] (0% activity) controls present on each plate. IC50 values were determined through fitting of Log-10 transformed data using the “log(inhibitor) versus normalised response–variable slope” non-linear function in GraphPad PRISM v8.0 software package (GraphPad Software, San Diego, CA, USA).

T2 sequence (P19634 whole entry): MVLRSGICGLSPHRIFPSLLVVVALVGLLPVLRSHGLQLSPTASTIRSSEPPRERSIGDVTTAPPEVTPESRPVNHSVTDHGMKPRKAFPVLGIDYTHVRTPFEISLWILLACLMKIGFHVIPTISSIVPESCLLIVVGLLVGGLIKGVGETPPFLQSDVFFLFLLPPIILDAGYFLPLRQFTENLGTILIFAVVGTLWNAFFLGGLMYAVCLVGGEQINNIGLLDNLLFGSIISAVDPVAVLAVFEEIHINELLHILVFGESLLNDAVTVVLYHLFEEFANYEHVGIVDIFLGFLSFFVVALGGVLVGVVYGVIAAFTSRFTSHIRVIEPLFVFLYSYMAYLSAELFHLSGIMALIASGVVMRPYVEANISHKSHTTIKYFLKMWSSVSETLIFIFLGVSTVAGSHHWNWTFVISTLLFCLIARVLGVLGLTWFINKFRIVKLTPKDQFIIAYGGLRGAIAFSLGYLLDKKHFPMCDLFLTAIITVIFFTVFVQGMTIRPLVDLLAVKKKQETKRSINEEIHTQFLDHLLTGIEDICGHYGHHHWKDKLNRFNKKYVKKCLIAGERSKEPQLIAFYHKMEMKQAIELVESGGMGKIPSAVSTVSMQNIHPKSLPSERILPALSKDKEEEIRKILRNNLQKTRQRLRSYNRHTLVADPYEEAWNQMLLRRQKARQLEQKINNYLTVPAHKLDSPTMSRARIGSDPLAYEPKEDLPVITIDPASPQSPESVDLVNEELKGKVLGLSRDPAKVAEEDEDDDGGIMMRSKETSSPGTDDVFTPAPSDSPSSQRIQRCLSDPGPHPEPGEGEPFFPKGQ

SMILES | IC50 at 48 h [1] [µM] | IC50 [2] [µM] | inhibition at 1 µM [3] [%] | NHE1 Inhibition (%) 10 μM ([3]; 10 μM) | inhibition at 10 µM ([3]; 10 μM) [%] | inhibition at 2.5 µM ([2]; @ 2,500 nM, read-out: uPA inhibition at single concentration (printed in uPA IC50 column)) [%] | higher uPA activity than its HMA congener 15 [2] [fold] | decrease in uPA activity on opening the 5-alkylamino ring ([2]; within the 6-(2-benzofuranyl) series) [fold]
N=C(N)NC(=O)c1nc(Cl)c(N2CCCCCC2)nc1N [HMA, 5-(N,N-hexamethylene)amiloride, reference compound] | 32.1 | 2.21 | 66 | completely blocking activity | 100 |  |  | 
N=C(N)NC(=O)c1nc(I)c(N)nc1N [compound 3] | > 100 | 1.58 | 36 |  | 86 |  |  | 
N=C(N)NC(=O)c1nc(-c2cc3ccccc3o2)c(N2CCCCCC2)nc1N [compound 5] | 19.1 | 0.297 ± 0.016 | 39 |  | 72 |  |  | 
Cc1ccc2oc(-c3nc(C(=O)NC(=N)N)c(N)nc3N)cc2c1 [compound 6] | 11.7 | 1.05 | 0 |  | 71 |  |  | 
Cc1ccc2oc(-c3nc(C(=O)NC(=N)N)c(N)nc3N3CCCCCC3)cc2c1 [compound 7] | 8.8 | 1.18 | 5 |  | 100 |  |  | 
N=C(N)NC(=O)c1nc(-c2cc3cc(F)ccc3o2)c(N)nc1N [compound 8] | 10.6 | 0.954 ± 0.072 | 0 |  | 75 |  |  | 
N=C(N)NC(=O)c1nc(-c2cc3cc(F)ccc3o2)c(N2CCCCCC2)nc1N [compound 9] | 9.6 | 0.187 ± 0.017 | 22 |  | 100 |  |  | 
N=C(N)NC(=O)c1nc(-c2cc3cc(Cl)ccc3o2)c(N)nc1N [compound 10] | 4.4 | 0.94 ± 0.059 | 0 |  | 62 |  |  | 
N=C(N)NC(=O)c1nc(-c2cc3cc(Cl)ccc3o2)c(N2CCCCCC2)nc1N [compound 11] | 26.4 |  | 0 |  | 0 | 49 |  | 
N=C(N)NC(=O)c1nc(-c2cc3cc(Br)ccc3o2)c(N)nc1N [compound 12] | 32.1 | 5.93 | 0 |  | 97 |  |  | 
N=C(N)NC(=O)c1nc(-c2cc3cc(Br)ccc3o2)c(N2CCCCCC2)nc1N [compound 13] | 6.2 | 2.56 | 0 |  | 0 |  |  | 
COc1ccc2oc(-c3nc(C(=O)NC(=N)N)c(N)nc3N)cc2c1 [compound 14] | > 100 | 0.467 ± 0.022 | 4 |  | 36 |  | > 3 | 
COc1ccc2oc(-c3nc(C(=O)NC(=N)N)c(N)nc3N3CCCCCC3)cc2c1 [compound 15] | 25.1 | 1.69 | 34 |  | 91 |  |  | 
N=C(N)NC(=O)c1nc(-c2cc3cc(F)cc(F)c3o2)c(N)nc1N [compound 16] | 4.7 | 0.609 ± 0.026 | 7 |  | 52 |  |  | 
N=C(N)NC(=O)c1nc(-c2cc3cc(F)cc(F)c3o2)c(N2CCCCCC2)nc1N [compound 17] | 8.8 | 0.38 ± 0.01 | 0 |  | 90 |  |  | 
N=C(N)NC(=O)c1nc(-c2cc3cnccc3o2)c(N)nc1N [compound 18] | 26.4 | 1.01 |  |  |  |  |  | 
N=C(N)NC(=O)c1nc(-c2cc3cnccc3o2)c(N2CCCCCC2)nc1N [compound 19] | 69.4 | 0.164 | 23 |  | 100 |  |  | 
N=C(N)NC(=O)c1nc(-c2cc3ncccc3o2)c(N)nc1N [compound 20] | > 100 | 0.453 | 0 |  | 31 |  |  | 

SMILES | IC50 at 48 h [1] [µM] | IC50 [2] [µM] | inhibition at 1 µM [3] [%] | NHE1 Inhibition (%) 10 μM ([3]; 10 μM) | inhibition at 10 µM ([3]; 10 μM) [%] | inhibition at 2.5 µM ([2]; @ 2,500 nM, read-out: uPA inhibition at single concentration (printed in uPA IC50 column)) [%] | higher uPA activity than its HMA congener 15 [2] [fold] | decrease in uPA activity on opening the 5-alkylamino ring ([2]; within the 6-(2-benzofuranyl) series) [fold]
N=C(N)NC(=O)c1nc(-c2cc3ncccc3o2)c(N2CCCCCC2)nc1N [compound 21] | 43.1 | 0.038 | 2 |  | 100 |  |  | 
N=C(N)NC(=O)c1nc(-c2ccc(C(F)(F)F)cc2)c(N)nc1N [compound 22] | 82.4 | 5.1 |  |  |  |  |  | 
N=C(N)NC(=O)c1nc(-c2ccc(C(F)(F)F)cc2)c(N2CCCCCC2)nc1N [compound 23] | 14.7 | 6.91 | 77 |  | 100 |  |  | 
COc1ncc(-c2nc(C(=O)NC(=N)N)c(N)nc2N)cn1 [compound 25] | > 100 | 0.333 ± 0.022 | 0 |  | 18 |  |  | 
N=C(N)NC(=O)c1nc(-c2cnc(N)nc2)c(N2CCCCCC2)nc1N [compound 27] | > 100 | 0.034 ± 0.005 | 0 |  | 11 |  |  | 
N=C(N)NC(=O)c1nc(-c2cnc(NCCO)nc2)c(N2CCCCCC2)nc1N [compound 28] | > 100 | 0.067 ± 0.003 | 0 |  | 15 |  |  | 
N=C(N)NC(=O)c1nc(-c2cc3ccccc3o2)c(N2CCCC2)nc1N [compound 31] | 22.7 | 0.546 ± 0.024 | 18 |  | 85 |  |  | 
N=C(N)NC(=O)c1nc(-c2cc3ccccc3o2)c(N2CCCCC2)nc1N [compound 32] | 16.2 | 1.88 | 69 |  | 100 |  |  | 
CCN(c1nc(N)c(C(=O)NC(=N)N)nc1-c1cc2ccccc2o1)C(C)C [compound 33] | 17.2 | 1.6 | 8 |  | 41 |  |  | > 5
N=C(N)NC(=O)c1nc(-c2cc3ccccc3o2)c(NC2CCCC2)nc1N [compound 34] | 6.2 | 5.87 | 0 |  | 0 |  |  | 
N=C(N)NC(=O)c1nc(-c2cc3ccccc3o2)c(NC2CCCCCC2)nc1N [compound 35] | 26.2 | 30.2 | 0 |  | 0 |  |  | 
N=C(N)NC(=O)c1nc(-c2cc3ccccc3o2)c(N2CCOCC2)nc1N [compound 36] | 36.7 | 0.797 ± 0.015 | 29 |  | 81 |  |  | 
N=C(N)NC(=O)c1nc(-c2cc3ccccc3o2)c(N2CCCOCC2)nc1N [compound 37] | 54 | 0.149 ± 0.017 | 55 |  | 96 |  |  | 
N=C(N)NC(=O)c1nc(-c2cc3ncccc3o2)c(N2CCCC2)nc1N [compound 38] | > 100 | 0.113 ± 0.004 | 0 |  | 81 |  |  | 
N=C(N)NC(=O)c1nc(-c2ccc(C(F)(F)F)cc2)c(C2CC2)nc1N [compound 40] | 26.6 | 16.2 | 28 |  | 80 |  |  | 
N=C(N)NC(=O)c1nc(-c2cncnc2)c(N2CCOCC2)nc1N [compound 41] | > 100 | 0.563 ± 0.029 | 77 |  | 87 |  |  | 
N=C(N)NC(=O)c1nc(-c2cncnc2)c(N2CCCOCC2)nc1N [compound 42] | > 100 | 0.78 ± 0.033 | 39 |  | 96 |  |  | 
COc1ncc(-c2nc(C(=O)NC(=N)N)c(N)nc2N2CCCOCC2)cn1 [compound 43] | > 100 | 0.267 ± 0.014 | 0 |  | 16 |  |  | 
